Molecular target: ATP-dependent translocase ABCB1 (Mus musculus, UniProt P21447)
Test: TP_TRANSPORTER: increase in brain concentration in mdr1a(-/-) mouse
Format: functional, organism-based
Details: in vivo

Chain of ATP-dependent translocase ABCB1 (P21447 whole entry): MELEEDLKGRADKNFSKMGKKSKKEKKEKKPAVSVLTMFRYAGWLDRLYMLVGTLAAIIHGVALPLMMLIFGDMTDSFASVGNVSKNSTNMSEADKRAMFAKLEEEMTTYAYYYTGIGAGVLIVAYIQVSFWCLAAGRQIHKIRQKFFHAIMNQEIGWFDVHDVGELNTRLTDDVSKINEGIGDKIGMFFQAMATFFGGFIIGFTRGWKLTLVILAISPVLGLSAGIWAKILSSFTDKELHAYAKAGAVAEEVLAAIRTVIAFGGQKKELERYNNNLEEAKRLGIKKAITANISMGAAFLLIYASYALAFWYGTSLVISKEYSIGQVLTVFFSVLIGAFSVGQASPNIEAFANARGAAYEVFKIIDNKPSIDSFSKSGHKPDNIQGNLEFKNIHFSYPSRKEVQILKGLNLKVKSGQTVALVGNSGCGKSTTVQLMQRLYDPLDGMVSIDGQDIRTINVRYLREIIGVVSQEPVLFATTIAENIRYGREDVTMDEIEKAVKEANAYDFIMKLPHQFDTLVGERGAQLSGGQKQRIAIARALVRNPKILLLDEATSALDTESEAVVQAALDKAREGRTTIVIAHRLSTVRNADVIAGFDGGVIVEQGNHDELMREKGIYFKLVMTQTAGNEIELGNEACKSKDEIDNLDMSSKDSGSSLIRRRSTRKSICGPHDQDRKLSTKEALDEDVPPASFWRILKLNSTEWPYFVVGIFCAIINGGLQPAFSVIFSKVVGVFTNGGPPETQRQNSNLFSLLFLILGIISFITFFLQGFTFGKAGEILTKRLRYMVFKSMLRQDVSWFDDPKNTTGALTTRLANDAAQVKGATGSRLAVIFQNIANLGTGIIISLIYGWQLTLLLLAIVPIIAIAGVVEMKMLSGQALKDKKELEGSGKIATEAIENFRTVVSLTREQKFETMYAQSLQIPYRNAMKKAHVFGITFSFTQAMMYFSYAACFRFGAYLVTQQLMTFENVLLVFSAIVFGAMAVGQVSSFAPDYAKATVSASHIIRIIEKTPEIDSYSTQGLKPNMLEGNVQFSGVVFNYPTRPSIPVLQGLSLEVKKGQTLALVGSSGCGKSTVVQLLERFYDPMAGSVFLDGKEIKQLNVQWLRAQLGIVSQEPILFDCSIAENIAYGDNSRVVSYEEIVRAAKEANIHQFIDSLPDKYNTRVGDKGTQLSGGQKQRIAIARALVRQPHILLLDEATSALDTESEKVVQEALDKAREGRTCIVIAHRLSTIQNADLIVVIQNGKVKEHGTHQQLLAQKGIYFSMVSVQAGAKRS

Activity: substrate [+]
SMILES: COC(=O)c1ccccc1-c1c2ccc(=N)cc-2oc2cc(N)ccc12.Cl [RHODAMINE123]
